According to US10450260B2, “NO- and H2S-releasing compounds” (RESEARCH FOUNDATION OF THE CITY UNIVERSITY OF NEW YORK, priority 2011, dated 2019):
Where two headings read alike, the source gives them in different places.

Experiments:
Type in all cases: cell-based
[1] = test system: HT-29 human colon cancer cells; assay: MTT cell growth inhibition, HT-29; details: for IC50: Homo sapiens; for Ratio NSAID/NOSH-NSAID, HT-29: fold-enhancement in potency over the parent compound
Method: (§1) HT-29, SW-480 and HCT-15 human colon adenocarcinoma, MIA PaCa-2 and BxPC-3 human pancreatic cancer, LNCAP human prostate cancer, A549 human lung cancer, MCF-7 (estrogen receptor positive), MDA-MB 231 and SK-BR-3 (estrogen receptor negative) human breast cancer, and Jurkats human leukemia cell lines were obtained from American Type Tissue Collection (Manassas, Va.). All cells lines were grown as monolayers except for the Jurkats which were grown in suspension. The pancreatic and breast cancer cells were grown in Dulbecco's modified Eagle's medium, the prostate, Jurkat, SW-480 and HCT-15 colon cells were grown in RPMI 1640 medium, the lung cells were grown in F-12 and the colon HT-29 cells were grown in McCoy 5A. All media were supplemented with 10% fetal calf serum (Invitrogen, Carlsbad, Calif.) penicillin (50 U/ml), and streptomycin (50 μg/ml) (Invitrogen, Carlsbad, Calif.). Cells were seeded on culture dishes at a density of 25×10^3 cells/cm^2 and incubated at 37° C. in 5% CO2 and 90% relative humidity. Single cell suspensions were obtained by trypsinization (0.05% trypsin/EDTA), and cells were counted using a hemocytometer. Viability was determined by the trypan blue dye exclusion method.
(§2) Cell growth inhibitory effect of NOSH compounds were measured using a colorimetric MTT assay kit (Roche, Indianapolis, Ind.). Cancer cells were plated in 96-well plates at a density of 50,000 cells/well. The cells were incubated for 24 h with different concentrations of NOSH compounds. After the indicated time, 10 μl of MTT dye (3-[4,5-dimethylthiazol-2-yl]-2,5-diphenyl tetrazolium bromide, 5 mg/ml in phosphate buffered saline), was added to each well, and the plates were incubated for 2 hours at 37° C. Then, the media was aspirated, and add 100 μl of the solubilization solution (10% SDS in 0.01 M HCl) was added to each well to solubilize the formant crystals. The absorbance of the plates was measured on an ELISA reader at a wavelength of 570 nm. Each sample was performed in triplicate, and the entire experiment was repeated three times.
HT-29 human colon cancer cells were obtained from American Type Tissue Collection (Manassas, Va.) and grown as monolayer in McCoy 5A media that was supplemented with 10% fetal calf serum (Invitrogen, Carlsbad, Ca.), penicillin (50 U/ml), and streptomycin (50 μg/ml) (Invitrogen, Carlsbad, Calif.).
Growth inhibition was measured using a colorimetric MTT assay kit (Roche, Indianapolis, Ind.). Proliferation (PCNA) was assessed using an ELISA kit from Calbiochem, (La Jolla, Calif.). Cell cycle phase distributions and apoptosis of control and treated cells were determined as previously described. All methods are described in Chattopadhyay et al., Biochemical Pharmacology, 2012, 83(6), 715-722.
HT-29, SW-480 and HCT-15 human colon adenocarcinoma, MIA PaCa-2 and BxPC-3 human pancreatic cancer, LNCAP human prostate cancer, A549 and H383 human lung cancer, MCF-7, MDA-MB 231 and SK-BR-3 human breast cancer and Jurkat T cell human leukemia cell lines were obtained from American Type Tissue Collection (Manassas, Va.) All cells lines were grown as monolayers except for the Jurkat T cells which were grown as suspension culture. The pancreatic and breast cancer cells were grown in Dulbecco's modified Eagle's medium, the prostate, Jurkat, SW-480 and HCT-15 colon cells were grown in RPMI 1640 medium, the lung cells were grown in F-12 and the colon HT-29 cells were grown in McCoy 5A. All media were supplemented with 10% fetal calf serum (Invitrogen, Carlsbad, Calif.) penicillin (50 U/ml), and streptomycin (50 μg/ml) (Invitrogen, Carlsbad, Calif.). Cells were seeded on culture dishes at a density of 25×10^3 cells/cm^2 and incubated at 37° C. in 5% CO2 and 90% relative humidity. Single cell suspensions were obtained by trypsinization (0.05% trypsin/EDTA), and cells were counted using a hemacytometer. The final DMSO concentration was adjusted in all media to 1%. Viability was determined by the trypan blue dye exclusion method. […]

[2] = test system: MDA-MB 231 human breast cancer; assay: MTT cell growth inhibition, MDA MB231; details: for IC50: Homo sapiens, MDA-MB-231; for Ratio NSAID/NOSH-NSAID, MDA MB231: fold-enhancement in potency over the parent compound
Method: as §1, §2
(§3) HT-29, SW-480 and HCT-15 human colon adenocarcinoma, MIA PaCa-2 and BxPC-3 human pancreatic cancer, LNCAP human prostate cancer, A549 and H383 human lung cancer, MCF-7, MDA-MB 231 and SK-BR-3 human breast cancer and Jurkat T cell human leukemia cell lines were obtained from American Type Tissue Collection (Manassas, Va.) All cells lines were grown as monolayers except for the Jurkat T cells which were grown as suspension culture. The pancreatic and breast cancer cells were grown in Dulbecco's modified Eagle's medium, the prostate, Jurkat, SW-480 and HCT-15 colon cells were grown in RPMI 1640 medium, the lung cells were grown in F-12 and the colon HT-29 cells were grown in McCoy 5A. All media were supplemented with 10% fetal calf serum (Invitrogen, Carlsbad, Calif.) penicillin (50 U/ml), and streptomycin (50 μg/ml) (Invitrogen, Carlsbad, Calif.). Cells were seeded on culture dishes at a density of 25×10^3 cells/cm^2 and incubated at 37° C. in 5% CO2 and 90% relative humidity. Single cell suspensions were obtained by trypsinization (0.05% trypsin/EDTA), and cells were counted using a hemacytometer. The final DMSO concentration was adjusted in all media to 1%. Viability was determined by the trypan blue dye exclusion method.
(§4) Cell growth inhibitory effect of all NOSH-NSAIDs was measured using a colorimetric MTT assay kit (Roche, Indianapolis, Ind.). Cancer cells were plated in 96-well plates at a density of 30,000-50,000 cells/well depending on cell type. The cells were incubated for 24 hours with different concentrations of NOSH-NSAIDs. After the indicated time, 10 μL of MTT dye (3-[4,5-dimethylthiazol-2-yl]-2,5-diphenyl tetrazolium bromide, 5 mg/mL in phosphate buffered saline), was added to each well, and the plates were incubated for 2 hours at 37° C. Then, the media was aspirated, and 100 μL of the solubilization solution (10% SDS in 0.01 M HCl) was added to each well to solubilize the formant crystals. […]

[3] = test system: MCF-7 human breast cancer; assay: MTT cell growth inhibition, MCF7; details: for IC50: Homo sapiens, MCF7; for Ratio NSAID/NOSH-NSAID, MCF7: fold-enhancement in potency over the parent compound
Method: as §1, §2, §3, §4

[4] = test system: A549 human lung cancer; assay: MTT cell growth inhibition, A549; details: for IC50: Homo sapiens, A549; for Ratio NSAID/NOSH-NSAID, A549: fold-enhancement in potency over the parent compound
Method: as §1, §2, §3, §4

[5] = HT-29, 24 hours (Table 7), read-out: IC50 for cell growth inhibition, Colon HT-29
[6] = 24 hours (Table 7), read-out: IC50 for cell growth inhibition, Lung A549
[7] = HT-29, 24 hours, read-out: IC50 for cell growth inhibition, Colon HT-29
[8] = HT-29, 24 h (Table 5), in combinations the IC50 of ASA with fixed concentrations of SNAP and/or ADT-OH, read-out: IC50 at 24 hours for HT-29 cell growth inhibition
[9] = HT-29 cells, 24 h, read-out: IC50, 24 h
[10] = HT-29 colon cancer cells, 24 hours (Table 3), read-out: IC50 at 24 hours for cell growth inhibition
[11] = 24 hours, read-out: IC50 for cell growth inhibition, Lung A540

| SMILES | IC50 [1, 5] | IC50 ([2]; 24 hours (Table 7)) | IC50 ([3]; 24 hours (Table 7)) | IC50 [4, 6] | IC50 [1, 7] | IC50 ([2]; 24 hours) | IC50 ([3]; 24 hours) | IC50 [4, 11] | further results |
| --- | --- | --- | --- | --- | --- | --- | --- | --- | --- |
| CC(C(=O)Oc1ccc(-c2cc(=S)ss2)cc1)c1ccc2cc(OC(=O)CCCO[N+](=O)[O-])ccc2c1 (centres unmarked) [NOSH-7, 6-(1-oxo-1-(4-(3-thioxo-3H-1,2-dithiol-5-yl)phenoxy)propan-2-yl)naphthalen-2-yl 4-(nitrooxy)butanoate] | 0.08 µM | 0.11 µM | 0.11 µM | 0.1 µM | – | – | – | – | Ratio NSAID/NOSH-NSAID, HT-29 [1]: 34,687; Ratio NSAID/NOSH-NSAID, MDA MB231 [2]: 26,363; Ratio NSAID/NOSH-NSAID, MCF7 [3]: 21,363; Ratio NSAID/NOSH-NSAID, A549 [4]: 26,500 |
| O=C(CCCO[N+](=O)[O-])Oc1ccccc1C(=O)Oc1ccc(-c2cc(=S)ss2)cc1 [NOSH-1, 4-(3-thioxo-3H-1,2-dithiol-5-yl)phenyl 2-((4-(nitrooxy)butanoyl)oxy)benzoate] | – | – | – | – | 0.048 ± 0.003 µM | 0.1 ± 0.011 µM | 0.28 ± 0.016 µM | 0.05 ± 0.007 µM | potency of intact NOSH-1 over the combination ASA plus SNAP and ADT-OH ([1]; HT-29, 24 h): approximately 9000 fold; Potency enhancement (ratio of IC50 values ASA/NOSH-1), 24 h ([1]; HT-29 cells, 24 h): >100,000 fold; IC50 [1, 8]: 0.05 ± 0.005 µM; IC50 [1, 9]: 0.0455 ± 0.0025 µM; IC50 [1, 10]: 0.05 ± 0.003 µM |
| O=C(CCCC[C@@H]1CCSS1)Oc1ccccc1C(=O)OCCCCO[N+](=O)[O-] [NOSH-4, (R)-4-(nitrooxy)butyl 2-((5-(1,2-dithiolan-3-yl)pentanoyl)oxy)benzoate] | – | – | – | – | 0.3 ± 0.035 µM | 0.8 ± 0.022 µM | 0.28 ± 0.015 µM | 0.3 ± 0.012 µM | – |
| CC1=C(CC(=O)Oc2ccc(OC(=O)CCCO[N+](=O)[O-])c(C(=O)Oc3ccc(-c4cc(=S)ss4)cc3)c2)c2cc(F)ccc2/C1=C/c1ccc([S+](C)[O-])cc1 (centres unmarked) [NOSH-8, (E)-4-(3-thioxo-3H-1,2-dithiol-5-yl)phenyl 5-(2-(5-fluoro-2-methyl-1-(4-(methylsulfinyl)benzylidene)-1H-inden-3-yl)acetoxy)-2-((4-(nitrooxy)butanoyl)oxy)benzoate] | 0.089 µM | 0.098 µM | 0.11 µM | 0.18 µM | – | – | – | – | Ratio NSAID/NOSH-NSAID, HT-29 [1]: 8,988; Ratio NSAID/NOSH-NSAID, MDA MB231 [2]: 9,540; Ratio NSAID/NOSH-NSAID, MCF7 [3]: 8,772; Ratio NSAID/NOSH-NSAID, A549 [4]: 1,177 |
| O=C(CCC(=O)Oc1ccccc1C(=O)Oc1ccc(-c2cc(=S)ss2)cc1)OCCCCO[N+](=O)[O-] [NOSH-2, 4-(nitrooxy)butyl (2-((4-(3-thioxo-3H-1,2-dithiol-5-yl)phenoxy)carbonyl)phenyl) succinate] | – | – | – | – | 0.08 ± 0.005 µM | 0.085 ± 0.008 µM | 0.07 ± 0.005 µM | 0.12 ± 0.014 µM | – |
| CC(=O)Oc1ccccc1C(=O)O [ASA, aspirin, reference compound] | – | – | – | – | – | – | – | – | IC50 [1, 8]: > 1000 µM; IC50 [1, 9]: > 5000 µM; IC50 [1, 10]: > 5000 µM |
| COc1ccc2cc([C@H](C)C(=O)O)ccc2c1 [naproxen, reference compound] | 2780 µM | 2900 µM | 2350 µM | – | – | – | – | – | – |
| NC(=S)c1ccc(OC(=O)c2ccccc2OC(=O)CCCO[N+](=O)[O-])cc1 [NOSH-3, 4-carbamothioylphenyl 2-((4-(nitrooxy)butanoyl)-oxy)benzoate] | – | – | – | – | 7.5 ± 0.355 µM | 6 ± 0.22 µM | 5.7 ± 0.323 µM | 6.5 ± 0.224 µM | – |
| CC1=C(CC(=O)O)c2cc(F)ccc2/C1=C\c1ccc([S+](C)[O-])cc1 (centres unmarked) [sulindac, reference compound] | 800 µM | 935 µM | 965 µM | 212 µM | – | – | – | – | – |
